In this test the target is T1, human S1P1 receptor (Homo sapiens, UniProt P21453).
T1 construct: expressed in transfected cells; membranes used
The experiment in a line: GTP γ35S binding assay for S1P1 activity. Type of test: biochemical. The note with it: membranes of cells stably expressing the S1P1 receptor, test compounds 0.08 to 5,000 nM, 30 min at 25° C. The procedure:
Compounds were synthesized and tested for S1P1 activity using the GTP γ^35S binding assay. These compounds may be assessed for their ability to activate or block activation of the human S1P1 receptor in cells stably expressing the S1P1 receptor.
GTP γ^35S binding was measured in the medium containing (mM) HEPES 25, pH 7.4, MgCl2 10, NaCl 100, dithitothreitol 0.5, digitonin 0.003%, 0.2 nM GTP γ^35S, and 5 μg membrane protein in a volume of 150 μl. Test compounds were included in the concentration range from 0.08 to 5,000 nM unless indicated otherwise. Membranes were incubated with 100 μM 5′-adenylylimmidodiphosphate for 30 min, and subsequently with 10 μM GDP for 10 min on ice. Drug solutions and membrane were mixed, and then reactions were initiated by adding GTP γ^35S and continued for 30 min at 25° C. Reaction mixtures were filtered over Whatman GF/B filters under vacuum, and washed three times with 3 mL of ice-cold buffer (HEPES 25, pH7.4, MgCl2 10 and NaCl 100). Filters were dried and mixed with scintillant, and counted for ^35S activity using a β-counter. Agonist-induced GTP γ^35S binding was obtained by subtracting that in the absence of agonist. Binding data were analyzed using a non-linear regression method. In case of antagonist assay, the reaction mixture contained 10 nM S1P in the presence of test antagonist at concentrations ranging from 0.08 to 5000 nM.

Molecules are shown by their SMILES.

T1 sequence (P21453 whole entry): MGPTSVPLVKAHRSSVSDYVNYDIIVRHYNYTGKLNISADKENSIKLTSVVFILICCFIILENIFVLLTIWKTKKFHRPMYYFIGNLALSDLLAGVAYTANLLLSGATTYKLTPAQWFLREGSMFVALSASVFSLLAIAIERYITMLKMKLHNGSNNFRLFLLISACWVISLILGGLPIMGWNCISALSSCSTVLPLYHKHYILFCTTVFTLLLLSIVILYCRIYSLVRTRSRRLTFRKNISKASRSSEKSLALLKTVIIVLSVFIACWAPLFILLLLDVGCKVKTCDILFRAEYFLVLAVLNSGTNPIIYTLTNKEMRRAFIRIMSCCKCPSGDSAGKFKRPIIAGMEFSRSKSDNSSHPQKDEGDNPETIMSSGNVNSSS

In general, EC50 refers to the concentration that produces a half-maximal response. Read a low EC50 as higher potency in that assay. `Cc1ccc(CC(CCCOc2ccc(CCC(N)(CO)CO)cc2)c2cccc(F)c2)cc1C` (stereo not drawn) [Compound 2, 2-amino-2-[2-(4-{[5-(3,4-dimethylphenyl)-4-(3-fluorophenyl)pentyl]oxy}phenyl)ethyl]propane-1,3-diol]: the EC50 came to 42 nM.
As for `Cc1ccc(CC(CCCOc2ccc(CCC(N)(CO)CO)cc2)c2cc(F)cc(F)c2)cc1C` (stereo not drawn) [Compound 1, 2-amino-2-[2-(4-{[4-(3,5-difluorophenyl)-5-(3,4-dimethylphenyl)pentyl]oxy}phenyl)ethyl]propane-1,3-diol], the midpoint of the response, the EC50, lay at 15.1 nM.
The result for `Cc1ccc(CC(CCCOc2ccc(CCC(N)(CO)CO)cc2)c2cccc(Cl)c2)cc1C` (stereo not drawn) [Compound 3, 2-amino-2-[2-(4-{[4-(3-chlorophenyl)-5-(3,4-dimethylphenyl)pentyl]oxy}phenyl)ethyl]propane-1,3-diol] reads 92.4 nM.

These data come from patent US20140221498A1, “AMINO DIOL DERIVATIVES AS SPHINGOSINE 1-PHOSPHATE (S1P) RECEPTOR MODULATORS” (ALLERGAN, INC., priority 2013, published 2014).
